Read-outs that look alike come from different tables or passages of the source.
How the values were obtained:
[1] = system: mitochondrial dehydrogenases; experiment: MTT assay of cellular metabolism after UVA irradiation; assay type: cell-based; details: 3 hours after irradiation
Description: The study was conducted in accordance with the protocols of Berridge et al, (M V Berridge & A S Tan, Characterization of the cellular reduction of 3-(4,5-dimethylthiazol-2-yl)-2,5-diphenyltetrazolium bromide (MTT): subcellular localization, substrate dependence, and involvement of mitochondrial electron transport in MTT reduction, Arch. Biochem. Biophys. 303:474-482, 1993) and Voigt (W Voigt, Sulforhodamine B assay and chemosensitivity, Methods Mol Med, 110:39-48, 2005). Cellular metabolism is determined using the MTT assay to measure the activity of mitochondrial dehydrogenases, such as succinate dehydrogenase, which are implicated in the respiratory electron transport chain in mitochondria [M V Berridge & Tan Biochem Biophys, 303:474-482, 1993]. Additionally, the samples were subject to the Mitochondrial ToxGlo Assay (Promega Technical Manual, G8000 and G8001), which is a cell-based assay method that has been developed to quantify potential mitochondrial dysfunction as a result of xenobiotic exposure, using a sequential-addition, multiplexed chemistry.
Table 8 presents the result on the effect of UVA radiation on cell metabolism 3 hours after irradiation. As indicated, Compound 1 improves cell metabolism, even at a very low use concentration. Table 9 presents the effect of 24 hour pre-incubation on UVA-induced mitochondrial damage measured by ATP production in human dermal fibroblasts. […] Finally. Table 10 presents the effect of 24 hour pre-incubation on UVA-induced plasma membrane disruption in human dermal fibroblasts. As indicated, Compound 1 almost completely reversed plasma membrane disruption, again at a very low use concentration.

MMP-12 = MMP-12 (Homo sapiens, UniProt P39900); experiment: MMP-12 (Elastase) inhibition; assay type: biochemical; details: read-out: Inhibitory concentration (IC50), MMP-12
Description: The methodology for the study of MMP-12 activity was as follows: • A 0.1 g sample of Compound 1 was dissolved in 1 ml DMSO, then it was diluted 100× with 1.4% randomly methylated cyclodextrin in Iris buffer (50 mM Tris pH 7.5, 150 mM NaCl, 2 mM CaCl2, 5μ ZnSO4, 0.01% Brij-35) to make a stock solution. For the analysis, different concentrations of Compound 1 were used to determine the IC50. In the well: 0.2 mM substrate, 0.25 μg/ml enzyme, and sample were mixed and read according to the reference (TSA Thring et al. BMC Complementary and Alternate Medicine, 9, 27, 2009; https://doi.org/10.1186/1472-6882-9-27)

MMP3 = experiment: DNA microarray gene expression, MMP3; assay type: cell-based
Source text: (§1) In light of the efficacy of the aryl alkanones ire addressing many of the molecular/biomolecular processes damaged by UV exposure, a study was undertaken to assess whether these compounds would also be effective in addressing symptoms associated with non-UV induced skin aging including chronological aging as well as disease conditions that likewise adversely affect skin processes. The studies conducted involves DNA microarray, PCR array, cell culture, enzyme inhibitory activity.

ITGA2 = experiment: PCR array gene expression, ITGA2; assay type: cell-based
Source text: as §1

iNOS = iNOS (Homo sapiens, UniProt P35228); experiment: Reduction of iNOS activity; assay type: biochemical
Source text: Accordingly, an investigation was undertaken to assess the efficacy of compounds according to the present teaching as compared to compounds that are closely structurally related thereto in inhibiting NO product.

LAMA4 = experiment: DNA microarray gene expression, LAMA4; assay type: cell-based
Source text: as §1

COL1A1 = experiment: DNA microarray gene expression, COL1A1; assay type: cell-based
Source text: as §1

TIMP2 = experiment: DNA microarray gene expression, TIMP2; assay type: cell-based
Source text: as §1

FMOD = experiment: DNA microarray gene expression, FMOD; assay type: cell-based
Source text: as §1

VMN = experiment: DNA microarray gene expression, VMN; assay type: cell-based
Source text: as §1

COL3A1 = experiment: DNA microarray gene expression, COL3A1; assay type: cell-based
Source text: as §1

COL5A1 [2] = experiment: PCR array gene expression, COL5A1; assay type: cell-based
Source text: as §1

Collagen type 1 = experiment: Collagen 1 boosting in human dermal fibroblasts; assay type: cell-based; details: HDF, incubation time of 6 days
Description: In this study, an investigation was performed in relation to the ability, if any, of the aryl alkanones to boost the production of Collagens 1, 3 and 4 proteins. […] In this study, the cells used were human dermal fibroblasts (HDF), passage 12 (Cell Applications, San Diego, Calif.) which underwent an incubation time of 6 days.

MMP-3 enzyme = molecular target: T1, MMP-3 enzyme (Homo sapiens, UniProt P08254); experiment: MMP-3 inhibition; assay type: biochemical; details: read-out: Inhibitory concentration (IC50), MMP-3
T1 construct: purchased Anaspec
Description: Another study was conducted in which the elastin and MMP activity of Compound 1 was evaluated. The methodology for the study of MMP-1 and MMP-3 activity was as follows: • A 0.1 g sample of Compound 1 was dissolved in 1 ml DMSO, then it was diluted 100× with Tris buffer (50 mM Iris pH 7.5, 150 mM NaCl, 2 mM CaCl2, 5μ ZnO4, 0.01% Brij-35) to make a stock solution. For the analysis, different concentrations of Compound 1 were used to determine the IC50. The sample and 100 ng/ml MMP-1 enzyme (Anaspec) or MMP-3 enzyme (Anaspec) were incubated at 37° C. for 10 minutes before the addition of 2.25 μM PEPDAB008 substrate (Biozyme). The fluorescence signal was monitored at excitation of 485 nm and emission of 530 nm.

ITGB3 = experiment: PCR array gene expression, ITGB3; assay type: cell-based
Source text: as §1

COL5A1 [3] = experiment: DNA microarray gene expression, COL5A1; assay type: cell-based
Source text: as §1

Keratinocyte = experiment: UVA-induced delayed formation of CPDs (dCPDs) in keratinocytes; assay type: cell-based; details: 25 μg/ml
Description: A second study was carried out, similar to the first, except that this time the analysis was in assessing the efficacy, if any, of the presently taught aryl alkanones in reducing UVA-induced delayed formation of CPDs (dCPDs).

NOX = details: UVA, Fibroblasts
ELN = experiment: DNA microarray gene expression, ELN; assay type: cell-based
Source text: as §1

MSH6 = experiment: DNA microarray gene expression, MSH6; assay type: cell-based
Source text: as §1

T1 sequence (P08254 100-477, species assumed): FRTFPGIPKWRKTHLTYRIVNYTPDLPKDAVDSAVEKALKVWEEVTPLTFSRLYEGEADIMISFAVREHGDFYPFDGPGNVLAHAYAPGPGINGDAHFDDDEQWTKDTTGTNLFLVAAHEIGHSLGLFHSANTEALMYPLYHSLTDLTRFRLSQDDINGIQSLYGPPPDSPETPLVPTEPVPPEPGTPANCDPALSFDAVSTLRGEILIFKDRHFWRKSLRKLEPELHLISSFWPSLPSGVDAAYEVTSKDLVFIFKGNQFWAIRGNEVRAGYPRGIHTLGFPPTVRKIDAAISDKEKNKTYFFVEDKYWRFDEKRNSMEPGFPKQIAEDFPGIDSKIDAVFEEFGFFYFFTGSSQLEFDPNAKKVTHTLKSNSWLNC
Sequence of iNOS (P35228 whole entry, species assumed): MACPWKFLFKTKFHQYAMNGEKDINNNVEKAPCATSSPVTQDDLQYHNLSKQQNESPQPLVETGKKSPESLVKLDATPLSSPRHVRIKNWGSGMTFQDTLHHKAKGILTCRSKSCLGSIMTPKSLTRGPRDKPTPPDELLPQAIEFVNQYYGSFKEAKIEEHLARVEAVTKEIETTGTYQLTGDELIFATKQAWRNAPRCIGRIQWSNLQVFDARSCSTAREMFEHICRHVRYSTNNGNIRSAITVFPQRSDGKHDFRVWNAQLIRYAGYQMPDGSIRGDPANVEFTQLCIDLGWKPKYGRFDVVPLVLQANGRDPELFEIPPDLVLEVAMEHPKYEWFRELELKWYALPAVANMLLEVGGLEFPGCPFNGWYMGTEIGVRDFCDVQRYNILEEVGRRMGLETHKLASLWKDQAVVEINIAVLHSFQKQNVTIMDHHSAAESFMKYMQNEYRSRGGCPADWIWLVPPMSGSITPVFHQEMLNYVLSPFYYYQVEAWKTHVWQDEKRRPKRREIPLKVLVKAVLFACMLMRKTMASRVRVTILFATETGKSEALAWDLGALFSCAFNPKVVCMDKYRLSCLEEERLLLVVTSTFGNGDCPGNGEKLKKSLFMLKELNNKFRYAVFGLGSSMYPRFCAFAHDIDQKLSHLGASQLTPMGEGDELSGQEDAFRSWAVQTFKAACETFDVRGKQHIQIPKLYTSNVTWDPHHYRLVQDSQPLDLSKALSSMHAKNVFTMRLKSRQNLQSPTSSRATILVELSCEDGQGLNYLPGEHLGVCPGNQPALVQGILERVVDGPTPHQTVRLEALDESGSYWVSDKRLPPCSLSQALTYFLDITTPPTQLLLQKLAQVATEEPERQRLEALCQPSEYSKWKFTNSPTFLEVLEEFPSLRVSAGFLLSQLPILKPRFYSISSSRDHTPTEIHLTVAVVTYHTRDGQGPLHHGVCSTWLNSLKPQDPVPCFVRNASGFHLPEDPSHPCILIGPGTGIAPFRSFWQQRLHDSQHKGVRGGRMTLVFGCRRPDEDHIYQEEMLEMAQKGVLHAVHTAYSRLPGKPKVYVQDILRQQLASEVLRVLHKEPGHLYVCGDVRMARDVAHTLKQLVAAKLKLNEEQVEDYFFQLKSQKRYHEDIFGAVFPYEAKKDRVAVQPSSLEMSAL
Sequence of MMP-12 (P39900 106-470): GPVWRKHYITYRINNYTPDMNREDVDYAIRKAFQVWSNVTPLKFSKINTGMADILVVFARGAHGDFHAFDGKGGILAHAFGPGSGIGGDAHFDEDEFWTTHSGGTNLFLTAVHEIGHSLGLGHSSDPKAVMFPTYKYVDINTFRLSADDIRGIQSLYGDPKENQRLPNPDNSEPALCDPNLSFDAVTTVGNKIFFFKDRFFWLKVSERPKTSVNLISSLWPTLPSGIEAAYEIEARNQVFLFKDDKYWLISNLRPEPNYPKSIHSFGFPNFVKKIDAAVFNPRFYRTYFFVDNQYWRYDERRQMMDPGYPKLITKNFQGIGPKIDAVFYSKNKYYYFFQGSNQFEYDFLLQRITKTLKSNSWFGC

COc1cc(CC(C(C)=O)C(C)=O)ccc1O [Compound 1, Acetyl Zingerone]
Cell Metabolism Standardized to cell # (% Control) ([1]; 0.5 μg/ml): 123 % Control
MTT (% Control) ([1]; 0.5 μg/ml): 122 % Control
Cell Metabolism Standardized to cell # (% Control) ([1]; 2 μg/ml): 136 % Control
MTT (% Control) ([1]; 2 μg/ml): 137 % Control
Cell Metabolism Standardized to cell # (% Control) ([1]; 5 μg/ml): 174 % Control
MTT (% Control) ([1]; 5 μg/ml): 164 % Control
IC50 (MMP-12): 1060 µM
Microarray, MMP3 gene expression (MMP3): −2.4
PCR array, ITGA2 gene expression (ITGA2): +1.6
IC50 (iNOS): 194 µM
Microarray, LAMA4 gene expression (LAMA4): +1.7
Microarray, COL1A1 gene expression (COL1A1): +1.6
Microarray, TIMP2 gene expression (TIMP2): +1.5
Microarray, FMOD gene expression (FMOD): +1.6
Microarray, VMN gene expression (VMN): +1.7
Microarray, COL3A1 gene expression (COL3A1): +1.7
PCR array, COL5A1 gene expression (COL5A1 [2]): +2.7
% Collagen 1 Bosting (Collagen type 1; 50 μg/ml): 118%
% Collagen 1 Bosting (Collagen type 1; 100 μg/ml): 173%
IC50 (MMP-3 enzyme): 2140 µM
PCR array, ITGB3 gene expression (ITGB3): +2.0
Microarray, COL5A1 gene expression (COL5A1 [3]): +4.1
UVA/% Reduction in dCPDs vs. control, 0 hr. (Reduction in iCPDs) (Keratinocyte; 0 hr.): ^+0 hr.: ↓14%
UVA/% Reduction in dCPDs vs. control, 1 hr. (Keratinocyte; 1 hr.): 1 hr.: ↓43%
UVA/% Reduction in dCPDs vs. control, 2 hr. (Keratinocyte; 2 hr.): 2 hr.: ~0%
reduction of NOX activity (NOX; 25 μg/ml): −27%
reduction of NOX activity (NOX; 50 μg/ml): −33%
Microarray, ELN gene expression (ELN): +1.7
Microarray, MSH6 gene expression (MSH6): +2.1
